From patent publication US7205408B2, “Quinolines and nitrogenated derivative thereof substituted in 4-position by a piperidine-containing moiety and their use as antibacterial agents” (priority 1920, dated 2007)
Counter-ions that a name gives are not always drawn. Like-named read-outs stand apart in the source and are kept apart here.

Assay: MIC of test compounds against various organisms
Type: cell-based, S. aureus, S. pneumoniae, H. influenzae, E.faecalis
Method: The MIC (μg/ml) of test compounds against various organisms was determined: S. aureus Oxford, S. aureus WCUH29, S. pneumoniae 1629, S. pneumoniae N1387, S. pneumoniae ERY 2, H. influenzae Q1, E.faecalis 1.

[1] = against one or more of S. aureus Oxford, S. aureus WCUH29, S. pneumoniae 1629, S. pneumoniae N1387, S. pneumoniae ERY 2, H. influenzae Q1, E.faecalis 1 (gram positive and gram negative bacteria), read-out: MIC

Row | Compound | MIC [mg/L] | MIC [1] [mg/L]
1 | COc1ccc2nccc([C@@H](O)CN3CCC(NCc4ccc5c(c4)NC(=O)C(C)S5)CC3)c2c1 (mixture of isomers) [Example 21, 6-({1-[(R)-2-Hydroxy-2-(6-methoxy-quinolin-4-yl)-ethyl)-piperidin-4-ylamino}-methyl)-2-(R/S)-methyl-4H-benzo[1,4]thiazin-3-one dioxalate] | ≤ 2 | –
2 | COc1ccc2nccc([C@@H](O)CN3CCC(NCc4ccc5c(c4)NC(=O)CO5)CC3)c2c1 [Example 5, 6-({1-[(R)-2-Hydroxy-2-(6-methoxy-quinolin-4-yl)-ethyl]-piperidin-4-ylamino}-methyl)-4H-benzo[1,4]oxazin-3-one dioxalate] | ≤ 2 | –
3 | COc1ccc2nccc([C@@H](O)CN3CCC(NCc4ccc5c(c4)NC(=O)CS5)CC3)c2n1 [Example 16, 6-({1-[(R)-2-Hydroxy-2-(6-methoxy-[1,5]naphthyridin-4-yl)-ethyl]-piperidin-4-ylamino}-methyl)-4H-benzo[1,4]thiazin-3-one dioxalate] | ≤ 0.125 | –
4 | COc1ccc2nccc([C@@H](O)CN3CCC(NS(=O)(=O)c4ccc5c(c4)NC(=O)CCS5)CC3)c2n1 [Example 17, 4-Oxo-2,3,4,5-tetrahydro-benzo[b][1,4]thiazepine-7-sulfonic acid {1-[(R)-2-hydroxy-2-(6-methoxy-[1,5]naphthyridin-4-yl)-ethyl]-piperidin-4-yl}-amide oxalate] | ≤ 2 | –
5 | COc1ccc2nccc([C@@H](O)CN3CCC(NCc4cc5c(cc4[N+](=O)[O-])OCO5)CC3)c2c1.O=C(O)C(=O)O.O=C(O)C(=O)O [Example 18, (R)-1-(6-Methoxy-quinolin-4-yl)-2-{4-[(6-nitro-benzo[1,3]dioxol-5-ylmethyl)-amino]-piperidin-1-yl}-ethanol dioxalate] | – | ≤ 0.125
6 | COc1ccc2nccc([C@@H](O)CN3CCC(NCc4ccc5c(n4)OCCO5)CC3)c2c1 [Example 19, (R)-2-{4-[(2,3-Dihydro-[1,4]dioxino[2,3-b]pyridin-6-ylmethyl)-amino]-piperidin-1-yl}-1-(6-methoxy-quinolin-4-yl)-ethanol dioxalate] | ≤ 0.125 | –
7 | COc1ccc2nccc([C@@H](O)CN3CCC(NCc4cnc5c(c4)NC(=O)CS5)CC3)c2c1 [Example 20, 7-({1-[(R)-2-Hydroxy-2-(6-methoxy-quinolin-4-yl)-ethyl]-piperidin-4-ylamino}-methyl)-1-H-pyrido[2,3-b][1,4]thiazin-2-one dioxalate] | – | ≤ 2
